Assay results: patent US7109193B2, “Tricyclic diazepines tocolytic oxytocin receptor antagonists” (Wyeth, priority 2001, dated 2006)

Biological target: T1, human vasopressin V2 receptor subtype (Homo sapiens, UniProt P30518)
T1 construct: host or cells: CHO cells (pZeoSV vector)
Assay: Vasopressin binding in Chinese Hamster Ovary cell membranes expressing human vasopressin V2 subtype receptors
Conditions: 100 nM, CHO cell membranes, [3H]arginine vasopressin, values without parentheses
In short: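 Radioligand displacement on membranes from CHO cells stably expressing human V2 receptor, 25 to 50 μg protein/well, in 50 mM Tris-HCl pH 7.4 with MgCl2, BSA and protease inhibitors. [^3H]arginine vasopressin (8 nM working solution) incubated 60 min at room temperature; bound label measured by filtration and scintillation counting.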

Molecule: COc1cc2c(cc1OC)N(C(=O)c1ccc(-c3ccccc3C(F)(F)F)c(C)c1)Cc1ccc(C(=O)N3CCC(=O)CC3)n1C2 [Example 14, 7,8-Dimethoxy-10-{[2-methyl-2′-(trifluoromethyl)-[1,1′-biphenyl]-4-yl]carbonyl}-[(10,11-dihydro-5H-pyrrolo[2,1-c][1,4]benzodiazepin-3-yl)carbonyl]-4-piperidinone]
- V2 % inhibition @ 100 nM: −3%

Molecule: Cc1cc(C(=O)N2Cc3ccc(C(=O)N4CCC(N5CCCCC5)CC4)n3Cc3ccccc32)ccc1-c1ccccc1C(F)(F)F [Example 122, {10-[(2-Methyl-2′-(trifluoromethyl) -[1,1′-biphenyl]-4-yl)carbonyl]-10,11-dihydro-5H -pyrrolo[2,1-c][1,4]benzodiazepin-3-yl}[4-(1-piperidinyl)-1-piperidinyl]methanone]
- inhibition at 0.1 µM: 8%

Molecule: COc1cc(C(=O)N2Cc3ccc(C(=O)N4CCC(N5CCCCC5)CC4)n3Cc3ccccc32)ccc1-c1ccccc1C [Example 116, {10-[(2-Methoxy-2′-methyl[1,1′-biphenyl]-4-yl)carbonyl]-10,11-dihydro-5H-pyrrolo[2,1-c][1,4]benzodiazepin-3-yl}[4-(1-piperidinyl)-1-piperidinyl]methanone]
- inhibition at 0.1 µM: 22%

Molecule: COc1cc(C(=O)N2Cc3ccc(C(=O)NCCCn4ccnc4)n3Cc3ccccc32)ccc1-c1ccccc1C [Example 128, N-[3-(1H-Imidazol-1-yl)propyl]-10-[(2-methoxy-2′-methyl[1,1′-biphenyl]-4-yl)carbonyl]-10,11-dihydro-5H-pyrrolo[2,1-c][1,4]benzodiazepine-3-carboxamide]
- inhibition at 0.1 µM: 17%

Molecule: {10-[(2,2′-Dimethoxy[1,1′-biphenyl]-4-yl)carbonyl]-10,11-dihydro-5H-pyrrolo[2,1-c][1,4]benzodiazepin-3-yl}(4-isopropyl-1-piperazinyl)methanone [Example 244]
- V2 % inhibition @ 100 nM: 9%

Molecule: COc1ccccc1-c1ccc(C(=O)N2Cc3ccc(C(=O)N4CCC(N5CCCCC5)CC4)n3Cc3ccccc32)cc1OC [Example 119, {10-[(2,2′-Dimethoxy-[1,1′-biphenyl]-4-yl)carbonyl]-10,11-dihydro-5H-pyrrolo[2,1-c][1,4]benzodiazepin-3-yl}[4-(1-piperidinyl)-1-piperidinyl]methanone]
- inhibition at 0.1 µM: 15%

Molecule: COc1cc(C(=O)N2Cc3ccc(C(=O)N4CCC(N5CCCCC5)CC4)n3Cc3ccccc32)ccc1-c1cccc2ccccc12 [Example 118, {10-[3-Methoxy-4-(1-naphthyl)-benzoyl]-10,11-dihydro-5H-pyrrolo[2,1-c][1,4]benzodiazepin-3-yl}[4-(1-piperidinyl)-1-piperidinyl]methanone]
- inhibition at 0.1 µM: 39%

Molecule: COc1ccccc1-c1ccc(C(=O)N2Cc3ccc(C(=O)N(C)CCCN(C)C)n3Cc3ccccc32)cc1OC [Example 107, 10-[(2,2′-Dimethoxy[1,1′-biphenyl]-4-yl)carbonyl]-N-[3-(dimethylamino)propyl]-N-methyl-10,11-dihydro-5H-pyrrolo[2,1-c][1,4]benzodiazepine-3-carboxamide]
- inhibition at 0.1 µM: 19%

Molecule: COc1cccc(-c2ccc(C(=O)N3Cc4ccc(C(=O)N5CCC(N6CCCC6)CC5)n4Cc4ccccc43)cc2OC)c1 [Example 146, {10-[(2,3′-Dimethoxy[1,1′-biphenyl]-4-yl)carbonyl]-10,11-dihydro-5H-pyrrolo[2,1-c][1,4]benzodiazepin-3-yl}[4-(1-pyrrolidinyl)-1-piperidinyl]methanone]
- inhibition at 0.1 µM: 12%

Molecule: COc1ccccc1-c1ccc(C(=O)N2Cc3ccc(C(=O)N4CCC(N5CCCC5)CC4)n3Cc3ccccc32)cc1C [Example 137, {10-[(2′-Methoxy-2-methyl[1,1′-biphenyl]-4-yl)carbonyl]-10,11-dihydro-5H-pyrrolo[2,1-c][1,4]benzodiazepin-3-yl}[4-(1-pyrrolidinyl)-1-piperidinyl]methanone]
- inhibition at 0.1 µM: -4%

Molecule: CN(C)CCCN(C)C(=O)c1ccc2n1Cc1ccccc1N(C(=O)c1ccc(-c3cccc4ccccc34)cc1Cl)C2 [Example 109, 10-[2-Chloro-4-(1-naphthyl)benzoyl]-N-[3-(dimethylamino)propyl]-N-methyl-10,11-dihydro-5H-pyrrolo[2,1-c][1,4]benzodiazepine-3-carboxamide]
- inhibition at 0.1 µM: 14%

Molecule: Cc1cc(C(=O)N2Cc3ccc(C(=O)N4CCC(N5CCCC5)CC4)n3Cc3ccccc32)ccc1-c1ccccc1C(F)(F)F [Example 148, (10-{[2-Methyl-2′-(trifluoromethyl)[1,1′-biphenyl]-4-yl]carbonyl}-10,11-dihydro-5H-pyrrolo[2,1-c][1,4]benzodiazepin-3-yl)[4-(1-pyrrolidinyl)-1-piperidinyl]methanone]
- inhibition at 0.1 µM: 1%

Molecule: COc1cc2c(cc1OC)N(C(=O)c1ccc(-c3ccccc3C(F)(F)F)c(C)c1)Cc1ccc(C(=O)N(C)CCCN(C)C)n1C2.Cl [Example 13, N-Methyl-[N-(3-dimethylamino)propyl]-7,8-dimethoxy-10-{[2-methyl-2′-(trifluoromethyl)[1,1′-biphenyl]-4-yl]carbonyl}-10,11-dihydro-5H-pyrrolo[2,1-c][1,4]benzodiazepine-3-carboxamide hydrochloride salt]
- V2 % inhibition @ 100 nM: −4%

Molecule: COc1cc(C(=O)N2Cc3ccc(C(=O)N4CCC[C@H]4CN4CCCC4)n3Cc3ccccc32)ccc1-c1ccccc1Cl [Example 33, {[10-(2-Methoxy)-2′-chloro-[1,1′-biphenyl]-4-yl]carbonyl}-[(2S)-[(2-pyrrolidin-1-yl)methyl]pyrrolidin-1-yl]-10,11-dihydro-5H-pyrrolo[2,1-c][1,4]benzodiazepin-3-yl-methanone]
- V2 % inhibition @ 100 nM: 11%

Molecule: COc1cccc(-c2ccc(C(=O)N3Cc4ccc(C(=O)NCCC5CCCN5C)n4Cc4ccccc43)cc2C)c1 (stereo not drawn) [Example 164, 10-[(3′-Methoxy-2-methyl[1′1′-biphenyl]-4-yl)carbonyl]-N-[2-(1-methyl-2-pyrrolidinyl)ethyl]-10,11-dihydro-5H-pyrrolo[2,1-c][1,4]benzodiazepine-3-carboxamide]
- V2 % inhibition @ 100 nM: 16%

Molecule: COc1ccccc1-c1ccc(C(=O)N2Cc3ccc(C(=O)N4CCC[C@H]4CN4CCCC4)n3Cc3ccccc32)cc1C [Example 259, {10-[(2′-Methoxy-2-methyl[1,1′-biphenyl]-4-yl)carbonyl]-10,11-dihydro-5H-pyrrolo[2,1-c][1,4]benzodiazepin-3-yl}[(2S)-2-(1-pyrrolidinylmethyl)pyrrolidinyl]methanone]
- V2 % inhibition @ 100 nM: −3%

Molecule: COc1cccc(-c2ccc(C(=O)N3Cc4ccc(C(=O)N5CCN(CCN(C)C)CC5)n4Cc4ccccc43)cc2C)c1 [Example 199, {4-[2-(Dimethylamino)ethyl]-1-piperazinyl{}10-[(3′-methoxy-2-methyl[1,1′-biphenyl]-4-yl)carbonyl]-10,11-dihydro-5H-pyrrolo[2,1-c][1,4]benzodiazepin-3-yl}methanone]
- V2 % inhibition @ 100 nM: 6%

Molecule: COc1cc(C(=O)N2Cc3ccc(C(=O)NCCCn4ccnc4)n3Cc3ccccc32)ccc1-c1cccc2ccccc12 [Example 131, N-[3-(1H-Imidazol-1-yl)propyl]-10-[3-methoxy-4-(1-naphthyl)benzoyl]-10,11-dihydro-5H-pyrrolo[2,1-c][1,4]benzodiazepine-3-carboxamide]
- inhibition at 0.1 µM: 13%
